Data: patent US20230226135A9, “ACETYLCHOLINE MODULATION OF IMMUNE FUNCTION” (BCell Solutions, Inc., priority 2019, published 2023)

Tested on: IL1β and IL6
Assay: Collagen-induced arthritis model (collagen emulsion in CFA), pro-inflammatory cytokines
Type: in vivo, mice
Experimental: FIG. 8. Collagen-induced arthritis model. Animals were injected with a collagen emulsion in Complete Freunds Adjuvant (CFA) and treated with either CAP during early disease development or once arthritic disease was established.
Central to the overarching hypothesis, is the anti-inflammatory effects of CAP.
Rheumatoid arthritis (RA), an autoimmune condition caused by the immune system attacking healthy body tissue by directing antibodies to the lining of the joints, where they attack the tissue surrounding the joint. In an established mouse model of RA, induced by injection of collagen and Complete Freunds Adjuvant (CFA), there is an increase in the pro-inflammatory cytokines, IL1B and IL6 (FIG. 17). […] Therefore, different doses of CAP appear to be effective in the developing versus the established stages of the disease. These changes were accompanied by a reduction in peripheral B cells. These findings are important because IL6 and IL1B are differentially elevated depending on the severity of various infections, such as SARS-CoV-2. Thus, testing different doses of CAP at different stages of infection will be helpful to optimizing translational therapy.

## FRIMAVLAS [CAP, α7nAChR agonist]
0.2 mg/kg i.p., developing stage
  reducing IL1β and IL6: most efficacious
20 mg/kg i.p., established stage
  reducing IL1β and IL6: most efficacious
RA model, CAP i.p.
  peripheral B cells: reduction
Early or established disease, particularly in the established (late stage) model
  cytokines: dose dependent reduction
i.p. 2 mg/kg, developing stage
  reducing IL1B and IL6: most efficacious
